Assay results reported in ChEMBL document CHEMBL1961794, “Regulation of circadian behaviour and metabolism by synthetic REV-ERB agonists” (Nature, 2012).

Biological target: T1, Nuclear receptor subfamily 1 group D member 1 (Homo sapiens, UniProt P20393)
T1 sequence (P20393 whole entry): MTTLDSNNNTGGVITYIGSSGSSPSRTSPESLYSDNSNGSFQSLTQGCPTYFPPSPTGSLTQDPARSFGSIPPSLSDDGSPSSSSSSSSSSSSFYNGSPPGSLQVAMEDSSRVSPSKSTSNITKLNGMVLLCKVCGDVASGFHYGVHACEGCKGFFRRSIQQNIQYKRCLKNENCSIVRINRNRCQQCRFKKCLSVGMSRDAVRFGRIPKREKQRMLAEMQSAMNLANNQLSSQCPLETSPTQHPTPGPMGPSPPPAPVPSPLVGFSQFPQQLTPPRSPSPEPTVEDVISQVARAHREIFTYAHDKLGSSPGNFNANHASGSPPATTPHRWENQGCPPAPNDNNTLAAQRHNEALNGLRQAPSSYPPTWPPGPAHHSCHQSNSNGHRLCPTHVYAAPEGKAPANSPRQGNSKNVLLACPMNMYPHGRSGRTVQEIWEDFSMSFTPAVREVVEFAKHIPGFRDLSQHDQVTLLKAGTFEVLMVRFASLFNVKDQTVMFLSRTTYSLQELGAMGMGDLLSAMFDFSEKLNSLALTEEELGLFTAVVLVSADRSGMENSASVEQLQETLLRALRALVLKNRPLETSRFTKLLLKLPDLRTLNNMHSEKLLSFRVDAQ
Test: Increased REV-ERB-alpha LBD dependent repressor activity in HEK293 cell reporter assay
Type: cell-based
Conditions: hek293; call rule not given here

Question: CC(C)(C)OC(=O)CN(Cc1ccc(Cl)cc1)Cc1ccc([N+](=O)[O-])s1 [GSK-4112] was tested. Which IC50 did it give?
Answer: Not Active
